# Several values for one entry are separate records, joined by “and”; a condition that tells them apart may be missing. Identical values can stand only once. Entries after “also recorded” stand apart in the source; their conditions may differ.
# How the values were obtained:
# [1] = 25° C.; cited from earlier work
# [2] = Solubilization of alkali lignin in solvents; conditions: 20 °C (room temperature), solvent 5 g
# Description: Alkali lignin (average molecular weight of lignin obtained from Sigma-Aldrich reported as 60.0 kDa) with low sulfonate content was used as a technical lignin substrate for the rapid solubilization experiments.
# Confocal microscopy (10× magnification) was used to observe the morphologies of lignin before and after solubilization and precipitation, and the results are shown in FIGS. 8D-8F.
# [3] = reported (refs 24, 25); cited from earlier work
# CTec2+HTec2 (9:1, v/v) = assay: Tolerance of commercial enzyme cocktails to IL in saccharification; type: biochemical
# Method: FIG. 4C. Effects of some parameters on the sugar yield: IL concentration in hydrolysis. Normal operation conditions: pretreatment, 10 wt % SG loading, 90 wt % IL, 160° C., 0.5 h (3 h for eucalyptus); saccharification, 10 wt % IL, 20 mg protein/g SG, 50 ° C., 72 h.
# As a result, the associated IL recycling and wastewater treatment costs create significant economic and process engineering challenges for the commercial scale-up of this technology. In the present process, commercial cocktails of CTec2+HTec2 (9:1, v/v) could tolerant about 10 wt % IL in saccharification process (FIG. 4C). […] [OAc] is tolerant to commercial cocktails not only in pH match, but also in its low toxic nature.
# Generally, SSF requires compatible fermentation and saccharification conditions, with a similar pH, temperature and optimum substrate concentration. In a case of IL participating SSF, a compromise IL concentration for the two stages is an accessional requirement. […] [OAc] concentration of 10 wt %, however, increasing the [EOA] […] Thus, it would be interesting to see the performance of the wild yeast under different IL concentrations.
# One-pot pretreatment, saccharification and fermentation: In a typical procedure, SG (100 mg) was mixed with ([EOA][OAc]) at a 10% biomass loading in a 15 mL capped glass pressure tube and pretreated in a convection oven at 160° C. for 0.5 h. […]
# [4] = test system: Saccharomyces cerevisiae strain BY4741; assay: Toxicity test of [EOA][OAc] on yeast growth; type: cell-based
# Method: FIG. 5A. Toxicity test of [EOA][OAc]. Conditions: yeast strain: Saccharomyces cerevisiae strain BY4741, growth condition: in 24-well microplate with orbital-high intensity shaking/31° C./in IL solution (10 g/L glucose in each IL solutions), volume of the cell culture was 0.5 mL.
# For toxicity screening, a wild type yeast strain BY4741 was technically used and it was immersed in various IL concentrations from 2.5 to 15 wt %.
smiles,measurement,setting,value
OCC(O)CO [Glycerol],viscosity,[1],0.95 N s/m^2
"CC1COC(=O)O1 (stereo not drawn) [PC, propylene carbonate, reference compound]",Solubility (wt %) of alkali lignin,[2],Negligible solubility; also recorded: Trace
"CC(=O)O.NCCO [[EOA][OAc], ethanolamine acetate]","thermal decomposition temperature, Td",[3],above 200 °C
same,IL concentration tolerated by commercial cocktails in saccharification,"CTec2+HTec2 (9:1, v/v); CTec2+HTec2 (9:1, v/v), 50 °C, 72 h",about 10 wt %
same,glucose yield at raised IL concentration in saccharification,"CTec2+HTec2 (9:1, v/v); [EOA][OAc] concentration over 10 wt %",decreased glucose yield
same,yeast growth,[4]; 5 wt % IL concentration,better yeast growth
same,yeast strain growth,"[4]; IL concentrations from 2.5 to 15 wt %, 31 °C, 10 g/L glucose",better growth occurs in a lower IL titer below 10 wt %
"OCCO [EG, ethylene glycol]",Solubility (wt %) of alkali lignin,[2],> 30 wt % and ~31 wt %
same,viscosity,[1],0.0162 N s/m^2
